{
  "source": "patent US20100286082A1",
  "about": "“RIBOSWITCHES AND METHODS AND COMPOSITIONS FOR USE OF AND WITH RIBOSWITCHES” (Yale University, priority 2007, published 2010)",
  "key": {"17-90 RNA": {"test_system": "17-90 RNA", "assay": "In-line probing of 17-90 RNA (preQ1-II aptamer)", "format": "binding, Streptococcus pneumoniae R6", "details": "for binding by 17-90 RNA: compound concentrations up to 1 mM; for Kd: read-out: apparent KD"}, "68 metH RNA [1]": {"test_system": "68 metH RNA", "assay": "In-line probing of 68 metH RNA (SAH aptamer)", "format": "binding, Dechloromonas aromatica", "details": "for modulation of the RNA structure: concentrations as high as 1 mM", "experimental": "iii. In-Line Probing Analysis In-line probing assays were carried out essentially as previously described (Soukup and Breaker, 1999). 5′^32P-labeled RNAs were incubated at room temperature for approximately 40 h in 10 μl volumes containing 50 mM Tris-HCl (pH 8.3 at 25° C.), 20 mM MgCl2, 100 mM KCl, and included test compounds at the concentrations indicated. Spontaneous cleavage products were separated by denaturing 10% PAGE, visualized using a Phosphorlmager (Molecular Dynamics), and quantified using SAFA v1.1 software (Das et al., 2005). The amount of RNA cleaved at each nucleotide position was obtained from SAFA analysis, which automatically determines reference nucleotide positions with invariant levels of spontaneous cleavage to correct for different amounts loaded in each lane. Individual band intensities at each modulated site were summed and normalized to obtain values for the fraction of RNA that was structurally modulated, assuming that there was no modulation in the absence of ligand and maximal modulation in the presence of the highest concentration of ligand. Values for the apparent dissociation constant (KD) were determined by fitting the plot of the fraction modulated (F), versus the ligand concentration, [L], at all three indicated modulation sites to the equation F [L]/([L]+KD) using SigmaPlot 9 software (Systat Software, Inc.)."}, "SAM-II aptamer 156 metA [2]": {"target": "SAM-II aptamer 156 metA", "details": "Corbino et al., 2005; read-out: apparent KD for SAM; cited from earlier work"}, "68 metH RNA [3]": {"test_system": "68 metH RNA", "assay": "Equilibrium dialysis of [3H]SAM with 68 metH RNA", "format": "binding, Dechloromonas aromatica", "experimental": "(§1) The chambers were separated by a permeable membrane with a molecular weight cut-off of 5000 Daltons.\n(§2) Equilibrium dialysis was performed by delivering 20 μl samples to each side of a Dispo-Equilibrium Biodialyzer (The Nest Group, Inc., Southboro, Mass., USA) wherein the separation between chambers is maintained by a dialysis membrane with a 5000 Dalton molecular weight cut-off. One chamber contained a buffer solution comprised of 100 mM Tris-HCl (pH 8.3 at 24° C.), 20 mM MgCl2, 100 mM KCl, plus 100 nM [^3H]SAM."}, "[4]": {"target": "132 Sc RNA (SAM-IV riboswitch)", "assay": "In-line probing of 132 Sc RNA (SAM-IV)", "format": "binding, Streptomyces coelicolor", "source_text": "DNA corresponding to the aptamer in the pEZ35 plasmid (above) was amplified by PCR with primers 5′-[…]"}, "[5]": {"target": "SAM-I riboswitch 124 yitJ", "details": "calculated previously (Lim et al. 2006); read-out: KD [compound] (nM) SAM-I; cited from earlier work"}, "[6]": {"target": "SAM-I riboswitch 124 yitJ", "assay": "SAM-I riboswitch binding (literature)", "details": "ratio of the KD for the compound to that for SAM"}, "SAM-II aptamer 156 metA [7]": {"test_system": "SAM-II aptamer 156 metA", "details": "10 µM RNA, 100 nM [3H]SAM", "experimental": "as §1, §2"}, "[8]": {"assay": "Kinetics of cyclic di-GMP degradation under in-line probing conditions", "format": "physicochemical", "details": "in-line probing buffer, pH 8.3 at 23° C., 100 mM KCl, 20 mM MgCl2", "experimental": "A solution of 500 μM cyclic di-GMP was incubated in the presence of in-line probing buffer (50 mM Tris-HCl [pH 8.3 at 23° C.], 100 mM KCl, 20 mM MgCl2) for varying amounts of time. The reactions were initiated by the addition of cyclic di-GMP and quenched when a 10 μL aliquot was injected onto an Agilent Technologies 1200 series HPLC equipped with an Agilent Zorbax Oligo column (5 μM, 6.2 mm×80 mm). The compounds were eluted using a gradient mobile phase composed of 95% 0.1 M NaHPO4 [pH 6.0 at 23° C.] and 5% acetonitrile to 100% 1 M NaCl. The absorbance was monitored at 254 nm. A rate constant for cyclic di-GMP was established by plotting the natural logarithm of the fraction of the cyclic di-GMP remaining uncleaved versus time, wherein the negative slope of the resulting line reflects the rate constant."}, "[9]": {"target": "110 Vc2 RNA (Vc2 aptamer, GEMM RNA)", "assay": "In-line probing of 110 Vc2 RNA (cyclic di-GMP aptamer)", "format": "binding, Vibrio cholerae", "experimental": "In-line probing assays were performed using methods similar to those described previously (Soukup 1999). Briefly, 5′^32P-labeled RNAs (˜[…] for cyclic di-GMP KD analysis, ˜5 nM for all other analyses) were incubated at 23° C. for approximately 40 hours in 20 mM MgCl2, 100 mM KCl, and 50 mM Tris (pH 8.3 at 23° C.) with the indicated compounds. RNA cleavage products were separated by denaturing 10% PAGE, visualized using a Phosphorimager (Molecular Dynamics), and analyzed using SAFA v1.1 software (Das 2005) or ImageQuant (Molecular Dynamics). SAFA software was used to normalize to correct for differences in the amounts of RNA loaded to each lane and to determine the intensity of each band.\nTo determine the KD of 110 Vc2 for cyclic di-GMP, in-line probing was conducted as described above with various concentrations of cyclic di-GMP. Due to the use of an exceptionally low concentration of radiolabeled 110 Vc2 RNA, the samples loaded were supplemented with additional unlabeled RNA that had been separately subjected to in-line probing. […] Dissociation constants (KD) were determined using ImageQuant software (Molecular Dynamics) to compare individual band intensities at sites of structural modulation assuming that there was no modulation in the absence of ligand and complete modulation in the presence of the highest ligand concentration tested. […]"}, "[10]": {"target": "Escherichia coli PilZ protein domain (Escherichia coli, UniProt P76010)", "sequence (P76010 whole entry, the tested form may be a part)": "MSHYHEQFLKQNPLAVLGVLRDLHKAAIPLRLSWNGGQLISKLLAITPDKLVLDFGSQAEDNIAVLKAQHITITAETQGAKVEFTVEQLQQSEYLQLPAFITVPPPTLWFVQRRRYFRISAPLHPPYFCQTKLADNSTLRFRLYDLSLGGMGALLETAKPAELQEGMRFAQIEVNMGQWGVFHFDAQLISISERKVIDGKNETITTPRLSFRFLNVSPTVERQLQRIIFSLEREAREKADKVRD", "details": "Ryjenkov 2006; cited from earlier work"}, "[11]": {"test_system": "wild-type 149 moaA RNA (Moco RNA)-lacZ reporter fusion", "assay": "β-galactosidase reporter assay of 149 moaA RNA fusion", "format": "cell-based, Escherichia coli", "details": "modC deletion strain, LB supplemented with 10 mM compound", "source_text": "These sequences were cloned into a translational fusion plasmid upstream of, and in-frame with β-galactosidase reporter gene. The fusion was placed under the control of a constitutively active lacUV5 promoter to eliminate the effects of upstream anaerobic- and molybdate-dependent promoter regulation that naturally restricts expression of the moaA operon. This series of plasmids was placed in a strain of E. coli wherein the moaA gene was deleted. The resulting transformants were transformed with a plasmid containing the moaABCDE operon under the control of an arabinose-inducible and glucose-repressible promoter (Guzman et al., 1995). These doubly transformed strains enabled us to determine the role of the 149 moaA RNA on reporter gene expression when Moco concentrations are either high or low.\nTo determine whether molybdate is critical for gene regulation by 149 moaA RNA, a modC knockout strain of E. coli was conducted to eliminate high affinity molybdate transporter function. This strain was then transformed with the moaABCDE inducible expression plasmid and the wild-type and mutant 149 moaA reporter fusion plasmids.\nTo measure gene expression from lacZ in the wild-type and mutant reporter strains of E. coli, the cells were grown in a 14 mL culture vial with shaking overnight at 37° C. in 3 mL of LB with supplementation as indicated. […]"}},
  "note": "“And” between values parts separate entries of the source, which are not always exact repeats. Equal entries are not always repeated.",
  "data": [
    {"smiles": "Nc1ncc2[nH]cnc2n1", "note": "[2-aminopurine]", "values": [
      {"measurement": "binding by 17-90 RNA", "setting": "17-90 RNA", "result": "no binding is detected"}
    ]},
    {"smiles": "Nc1nc2c(c(=O)[nH]1)CC=N2", "note": "[7-deazaguanine]", "values": [
      {"measurement": "binding by 17-90 RNA", "setting": "17-90 RNA", "result": "bound with only a slightly better affinity"}
    ]},
    {"smiles": "Cn1cnc2nc(N)[nH]c(=O)c21", "note": "[7-methylguanine]", "values": [
      {"measurement": "binding by 17-90 RNA", "setting": "17-90 RNA", "result": "lack of 7-methylguanine binding"}
    ]},
    {"smiles": "Nc1ncnc2c1ncn2[C@@H]1O[C@H](CSC[C@H](N)C(=O)O)[C@@H](O)[C@H]1O", "note": "[SAC, S-adenosylcysteine]", "values": [
      {"measurement": "loss of affinity relative to SAH", "setting": "68 metH RNA [1]; in-line probing", "result": "only a modest loss of affinity"}
    ]},
    {"smiles": "C[S+](CC[C@H](N)C(=O)[O-])C[C@H]1O[C@@H](n2cnc3c(N)ncnc32)[C@H](O)[C@@H]1O", "note": "(stereo partly drawn) [SAM, S-adenosyl-L-methionine]", "values": [
      {"measurement": "Kd", "setting": "SAM-II aptamer 156 metA [2]", "result": "~1000", "unit": "nM"},
      {"measurement": "discrimination against SAM", "setting": "68 metH RNA [3]; SAH versus SAM", "result": "~3 orders of magnitude"},
      {"measurement": "Kd", "setting": "68 metH RNA [3]; equilibrium dialysis, 25 μM 68 metH RNA", "result": "≥ 25", "unit": "µM"},
      {"measurement": "Kd", "setting": "[4]; in-line probing, 132 Sc RNA, read-out: KD [compound] (nM) SAM-IV", "result": "150 nM and ~150 nM"},
      {"measurement": "KD [compound]/ KD [SAM] SAM-IV", "setting": "[4]; ratio of the KD for the compound to that for SAM", "result": 1},
      {"measurement": "apparent KD relative to apparent KD for SAH", "setting": "68 metH RNA [1]; in-line probing, commercial SAM (contains ~10% SAH)", "result": "no more than 10 fold"},
      {"measurement": "Kd", "setting": "[5]", "result": 5, "unit": "nM"},
      {"measurement": "KD [compound]/ KD [SAM] SAM-I", "setting": "[6]", "result": 1}
    ]},
    {"smiles": "C[S+](CC[C@H](N)C(=O)O)C[C@H]1O[C@@H](n2cnc3c(N)ncnc32)[C@H](O)[C@@H]1O", "note": "(stereo partly drawn) [[^3H]SAM, S-(5′-adenosyl)-L-methionine-(methyl-3H)]", "values": [
      {"measurement": "shift of the distribution of [3H]SAM to the RNA chamber", "setting": "68 metH RNA [3]; 10 µM RNA, 100 nM [3H]SAM", "result": "no shift"},
      {"measurement": "shift of the distribution of [3H]SAM to the RNA chamber", "setting": "SAM-II aptamer 156 metA [7]", "result": "~1.5", "unit": "fold"}
    ]},
    {"smiles": "Nc1nc2c(ncn2[C@@H]2O[C@@H]3COP(=O)(O)O[C@H]4[C@@H](O)[C@H](n5cnc6c(=O)[nH]c(N)nc65)O[C@@H]4COP(=O)(O)O[C@H]3[C@H]2O)c(=O)[nH]1", "note": "[cyclic di-GMP]", "values": [
      {"measurement": "rate constant for spontaneous cleavage", "setting": "[8]", "result": "3.2e-06", "unit": "min⁻¹"},
      {"measurement": "Kd", "setting": "[9]; in-line probing with various cyclic di-GMP concentrations, read-out: apparent dissociation constant (KD)", "result": "~1", "unit": "nM"},
      {"measurement": "Kd", "setting": "[10]", "result": 840, "unit": "nM"}
    ]},
    {"smiles": "CN(C)Cc1c[nH]c2nc(N)[nH]c(=O)c12", "note": "[dimethylaminomethyl analog, 7-(N,N″-dimethylaminomethyl)-7-deazaguanine]", "values": [
      {"measurement": "Kd", "setting": "17-90 RNA", "result": "~500", "unit": "nM"}
    ]},
    {"smiles": "N[C@@H](CCS)C(=O)O", "note": "[homocysteine]", "values": [
      {"measurement": "modulation of the RNA structure", "setting": "68 metH RNA [1]", "result": "neither homocysteine nor methionine cause any modulation of the RNA structure"}
    ]},
    {"smiles": "CSCC[C@H](N)C(=O)O", "note": "[methionine, L-methionine]", "values": [
      {"measurement": "modulation of the RNA structure", "setting": "68 metH RNA [1]", "result": "neither homocysteine nor methionine cause any modulation of the RNA structure"}
    ]},
    {"smiles": "Nc1nc2c(ncn2[C@@H]2O[C@H](COP(=O)(O)O)[C@@H](O)[C@H]2O)c(=O)[nH]1", "note": "[pG]", "values": [
      {"measurement": "binding by the aptamer", "setting": "[9]; concentration five orders of magnitude higher than the KD for cyclic di-GMP", "result": "not bound by the aptamer"}
    ]},
    {"smiles": "N#CC1C=Nc2nc(N)[nH]c(=O)c21", "note": "(stereo not drawn) [preQ0, 7-cyano-7-deazaguanine]", "values": [
      {"measurement": "Kd", "setting": "17-90 RNA", "result": "~500", "unit": "nM"}
    ]},
    {"smiles": "[Na+].[Na+].[O]=[Mo](=[O])([O-])[O-]", "note": "[sodium molybdate]", "values": [
      {"measurement": "reporter gene expression of WT 149 moaA reporter fusion", "setting": "[11]", "result": "expression is repressed"}
    ]},
    {"smiles": "[Na+].[Na+].[O]=[W](=[O])([O-])[O-]", "note": "[sodium tungstate]", "values": [
      {"measurement": "reporter gene expression of WT 149 moaA reporter fusion", "setting": "[11]", "result": "becomes derepressed"}
    ]}
  ]
}
